Source: patent publication US4327114A, “Substituted 1,8-dihydroxy-9-(10H)anthracenones” (Boehringer Ingelheim GmbH, priority 1980, dated 1982)
Entries after “also recorded” stand apart in the source; their conditions may differ.

Tests used:
Solubility remark = assay type: physicochemical
[1] = prior use; cited from earlier work
[2] = Acute toxicity in the mouse; assay type: in vivo; conditions: in vivo, within 14 days
Procedure: (§1) The acute toxicity was determined in the mouse and in the rat. Determined was the LD50, i.e. the dose after administration of which 50% of the animals died within 14 days, or it was determined how many of the 10 treated animals died within the period of observation.

mouse = test: Acute toxicity in the mouse; assay type: in vivo; conditions: 2000 mg/kg
Procedure: as §1

guinea pigs = test: Sensitizing activity on guinea pigs; assay type: in vivo, guinea pig (Perbright White strain)
Procedure: The sensitizing activity was tested 2 weeks after the skin compatibility test with 1:10 to 1:50 of the originally used concentrations behind the ears.

[3] = Acute toxicity in the rat; assay type: in vivo; conditions: in vivo, ip, within 14 days
Procedure: as §1

rat = test: Acute toxicity in the rat; assay type: in vivo
Procedure: as §1

skin of guinea pigs = test: Skin compatibility test on guinea pigs; assay type: in vivo, guinea pig (Perbright White strain); conditions: for Sum of the reactions divided by the number of animals: score 0 no irritation to 3 very strong erythema
Procedure: Guinea pigs of the Perbright White strain, with a body weight of about 350 gm, were fed with standard guinea pig feed (Altromin 3022) and water ad lib.
During the test, the animals were kept in single cages. The test substances, which were dissolved in a well compatible solvent, were applied to the skin of the animals (diameter of the test area 3.5 cm) daily for 3 weeks, from Monday to Friday. The animals were shaved each Monday, Wednesday and Friday in the early morning, the treatment with the test substances was performed in the early afternoon. Immediately before administration of the substance, the skin reaction was tested. The evaluation was carried out visually, and erythema, edema, and mycosis of the skin were considered.
The following evaluation was made:
2: strong erythema with beginning edema
3: very strong erythema with edema or beginning necrosis.
The numerical sum of the reactions was used for the total evaluation of a group of animals.

[4] = Penetration and metabolization in the skin in vitro; assay type: in vitro ADME, pig; conditions: thin-layer chromatography; for penetration into the layers of the skin: same carriers
[5] = test system: skin (forearms of volunteer human test subjects); test: Orienting skin compatibility in humans (ointments on forearm); assay type: in vivo; conditions: for discoloration of the skin / skin irritation: 0.44% ointment, 16 hours, doubled to 0.88% after 3 days if no reaction
Procedure: Ointments, each containing individually 0.44% of compounds […] and K were applied to the forearms of volunteer human test subjects, covered with bandage gauze and allowed to remain on the skin for 16 hours. After 16 hours the ointments were washed off with soap solution, and the skin irritation and discoloration, if any, were evaluated visually and photographed. Then, the test ointments were again administered and allowed to remain on the skin until the next day. Again, the reactions were evaluated and a new treatment was started.

psoriasis = conditions: literature or prior use; cited from earlier work
skin [6] = conditions: literature or prior use; listed as dithranol; cited from earlier work
skin [7] = test: Skin compatibility under occlusion, method of Mustakallio; assay type: in vivo; conditions: for concentrations producing discoloration and skin irritations: white vaseline
Procedure: In a further test, according to the method of Mustakallio, compound A was applied at concentrations of 1, 2, 4, 8, 16, 32 mmols in white vaseline and allowed to remain on the skin for 4 hours under occlusion. Compounds C and K, however, were applied at concentrations of 4, 8, 16, 32, 64, 128 mmols, also in white vaseline, and allowed to remain on the skin for 16 hours under occlusion. […] This means that the novel compounds are more compatible by a factor of at least 64.

[8] = Stability under light irradiation; assay type: physicochemical; conditions: for decomposition under light: 30 minutes, 400 W high-pressure mercury vapor lamp, in toluene or xylene
Procedure: Compound C and dithranol (A) in solution (toluene or xylene) were exposed for 30 minutes to a 400 W high-pressure mercury vapor lamp (Type HPM 12, Phillips), where the spectrum of light emission was changed by adding heavy metal salts.

guinea pig = test: Photo-sensitization in vivo on the guinea pig; conditions: 0.01% alcoholic solution, 3 weeks, 125 W mercury high-pressure lamp 10 minutes
Procedure: Since some halogenated aromatic substances have a photo-sensitizing activity, the photo-sensitization of compound C was also tested in vivo on the guinea pig.
Guinea pigs were treated for 3 weeks on 5 week-days with a 0.01% alcoholic solution of compound C. After 30 minutes each animal was exposed for 10 minutes to a 125 W mercury high-pressure lamp (ultra violet sun lamp). The irradiation was carried out in such a way that no UV-B erythema appeared.

[9] = Natural color of the substance (UV-absorption, FIG. 1); assay type: physicochemical; conditions: shortwave portion of visible light, beginning at 380 nm
From the text: Topically administrable substances which are colored are undesirable for cosmetic reasons and also because the lingerie may become soiled. […] This is also expressed by the optic impression of the preparations. […] This is a further advantage compared with dithranol.

[10] = molecular target: glucose-6-phosphate-dihydrogenase; test: Inhibition of glucose-6-phosphate-dihydrogenase after 120 minutes incubation; assay type: biochemical; conditions: 37° C., pH 7.6, REED and MUENCH
Procedure: The inhibiting effect upon enzymes was determined by measurement of the inhibition of glucose-6-phosphate-dihydrogenase.
The following equilibrium was observed: [drawing 5] (NADP-nicotinamide-adenine-dinucleotide-phosphate). The rate of formation of NADPH is a measure of the enzyme activity; it can be measured by means of the increase in extinction at […] per unit of time.
0.025 ml of glucose-6-phosphate-dihydrogenase were diluted to 10 ml with distilled water (Solution I). 100 mg of nicotinamide-adenine-dinucleotide-phosphate were dissolved in 13 ml of distilled water (Solution II). 47.2 mg of glucose-6-phosphate were dissolved in another 10 ml of distilled water (Solution III). Besides this, a buffer solution (Solution IV) was prepared as follows:
0.28 gm of triethanolamine hydrochloride and 1.461 gm of ethylene-diamine tetraacetic acid disodium salt were dissolved in 1 liter of distilled water, and the solution was adjusted to pH 7.6 with sodium hydroxide. The substance to be tested was dissolved in dimethyl formamide or ethanol (Solution V). Tested end-concentrations: 25, 12.5, 6.25, 3.125, 1.56 and 0.78 μg/ml.
A mixture of 0.1 ml of Solution I, 0.1 ml of Solution II, 2.67 ml of Solution IV and 0.03 ml of Solution V was kept at 37° C. for 120 minutes. After addition of 0.1 ml of Solution III and thorough mixing, the change in extinction was measured photometrically at 366 nm over 3 minutes. The inhibition values were calculated from the average values of 3 measurements (as change of extinction per minute), compared to controls to which the pure solvent was added as inhibitor solution. The ED50 was calculated according to the method of REED and MUENCH from the inhibiting values of the different concentrations. The following table contains the values thus determined: […]

Which solubility (Solubility remark) does the source give for CC(C)(C)c1cc(Br)c(O)c2c1Cc1c(Br)cc(Br)c(O)c1C2=O here?
Its solubility is “inadequate solubility”.

For O=C1c2c(O)cccc2Cc2cccc(O)c21 [Compound A, 1,8-Dihydroxy-9-(10H)anthracenone], which systemic side-effects [1] is on record?
The systemic side-effects was “lack of systemic side-effects”.

What about the LD50 at 336 h ([2]; ip) of the same molecule?
Its LD50 at 336 h is 2.42 mg/kg.

What about the LD50 at 336 h ([2]; sc.) of the same molecule?
Its LD50 at 336 h is 2.22 mg/kg.

What about the “Number of dead animals” value (mouse; p.o.) of the same molecule?
Its value is 2/10.

And the sensitized animals (guinea pigs; 0.03%, tested 2 weeks after skin compatibility test)?
Its sensitized animals is 3 out of 12.

And the LD50 at 336 h [3]?
The LD50 at 336 h was 5.19 mg/kg.

What about the “Number of dead animals” value (rat; p.o., 2000 mg/kg) of the same molecule?
Its value is 1/10.

What about the “Number of dead animals” value (rat; sc., 1000 mg/kg) of the same molecule?
The value was 2/10.

What about the “Sum of the reactions divided by the number of animals” value (“Sum of the reactions divided” below) (skin of guinea pigs; 0.015%, end of 1st week) of the same molecule?
The value was 0.66.

And the “Sum of the reactions divided” value (skin of guinea pigs; 0.015%, end of 2nd week)?
Its value is 0.33.

And the “Sum of the reactions divided” value (skin of guinea pigs; 0.015%, end of 3rd week)?
Its value is 0.33.

What about the “Sum of the reactions divided” value (skin of guinea pigs; 0.03%, end of 1st week) of the same molecule?
Its value is 1.3.

And the “Sum of the reactions divided” value (skin of guinea pigs; 0.03%, end of 2nd week)?
Its value is 2.16.

What about the “Sum of the reactions divided” value (skin of guinea pigs; 0.03%, end of 3rd week) of the same molecule?
The value was 2.25.

What about the “penetration into the layers of the skin” value [4] of the same molecule?
The value was “penetrate to an approximately equal extent”.

And the “metabolization in the skin” value [4]?
The value was “metabolized in a similar manner”.

And the “discoloration of the skin” value [5]?
Its value is “brownish-violet discoloration after only the second application”.

And the skin irritation [5]?
The skin irritation was “strong skin irritation with erythema”.

What about the “later changes of the treated skin area” value ([5]; ointment test) of the same molecule?
The value was “peeled after about one week”.

And the antipsoriatic activity (psoriasis)?
The antipsoriatic activity was “reliable activity”.

What about the “skin irritation and/or discoloration” value (skin [6]) of the same molecule?
Its value is “strong, irreversible discoloration of skin and lingerie; also recorded: strong skin-irritating activity”.

What about the “concentrations producing discoloration and skin irritations” value (skin [7]; 4 hours of occlusion) of the same molecule?
The value was at least 2 mmols.

What about the “concentrations producing discoloration and skin irritations” value (skin [7]; 16 hours of occlusion) of the same molecule?
The value was at least 1 mmols.

And the decomposition under light [8]?
The decomposition under light was “nearly completely decomposed”.

With O=C1c2c(O)ccc(Cl)c2Cc2c(Cl)ccc(O)c21 [Compound C, 4,5-Dichloro-1,8-dihydroxy-9-(10H)anthracenone] as the molecule, how does the photo-sensitizing activity (guinea pig) read?
The photo-sensitizing activity was “No photo-sensitizing activity could be determined”.

And the “Number of dead animals” value (mouse; i.p.)?
The value was 1/10.

And the “Number of dead animals” value (mouse; p.o.)?
The value was 0/10.

And the “Number of dead animals” value (mouse; sc.)?
The value was 6/10.

What about the “sensitization” value (guinea pigs; 1:10 to 1:50 of the original concentrations, behind the ears) of the same molecule?
Its value is “no sensitization”.

And the “Number of dead animals” value (rat; i.p., 2000 mg/kg)?
The value was 0/10.

What about the “Number of dead animals” value (rat; p.o., 2000 mg/kg) of the same molecule?
The value was 0/10.

And the “Number of dead animals” value (rat; sc., 2000 mg/kg)?
Its value is 0/10.

What about the “Sum of the reactions divided” value (skin of guinea pigs; 0.03%, end of 1st week) of the same molecule?
The value was 0.

And the “Sum of the reactions divided” value (skin of guinea pigs; 0.03%, end of 2nd week)?
Its value is 0.

And the “Sum of the reactions divided” value (skin of guinea pigs; 0.03%, end of 3rd week)?
The value was 0.04.

What about the “Sum of the reactions divided” value (skin of guinea pigs; 0.045%, end of 1st week) of the same molecule?
Its value is 0.166.

What about the “Sum of the reactions divided” value (skin of guinea pigs; 0.045%, end of 2nd week) of the same molecule?
Its value is 0.66.

And the “Sum of the reactions divided” value (skin of guinea pigs; 0.045%, end of 3rd week)?
Its value is 0.41.

And the “skin compatibility compared with compound A” value (skin of guinea pigs; Table 3)?
The value was “considerably more skin-compatible than compound A”.

What about the “penetration into the layers of the skin” value [4] of the same molecule?
The value was “penetrate to an approximately equal extent”.

And the “metabolization in the skin” value [4]?
Its value is “metabolized in a similar manner”.

And the “UV-absorption / yellow color” value [9]?
Its value is “significantly less UV-absorption”.

And the “discoloration of the skin” value [5]?
Its value is “no skin irritation or discoloration of the skin”.

What about the skin irritation [5] of the same molecule?
The skin irritation was “no skin irritation”.

What about the “ED50, inhibition of incubation after 120 minutes” value [10] of the same molecule?
Its value is 4.63 µg/mL.

What about the “skin irritations or discolorations” value (skin [7]; 4 to 128 mmols in white vaseline, after 4 and after 16 hours of occlusion) of the same molecule?
Its value is “no skin irritations or discolorations could be observed”.

What about the decomposition under light [8] of the same molecule?
The decomposition under light was “no decomposition could be determined”.

What about the “chlorination of toluene (radical formation)” value ([8]; gas-chromatographic, sensitivity 0.0001%) of the same molecule?
The value was “no chlorination of toluene could be found”.
